Data taken from PMC9822133, “Design, Synthesis and Antiproliferative Evaluation of Bis-Indole Derivatives with a Phenyl Linker: Focus on Autophagy” (Molecules, 2022).

How the values were obtained:
Atg7 = assay: Western blot, Atg7; assay type: cell-based, human; conditions: A549, 24, 48, 72 h
Source text: Atg7 belongs to the family of Atg (autophagy-related) proteins involved in the process of autophagy. A ubiquitin-like conjugation system is required for autophagosome formation. The Atg7 protein is an E1-like activating enzyme that ensures the conjugation reaction and is essential for successful conversion of cytosolic LC3-I to its conjugated form, LC3-II.. […] Similar results were reported earlier. Hseu et al. studied the effect of a natural chalcone, flavokawain B, on A549 lung cancer cells. […] Moreover, in curcumin-induced autophagy, up-regulation of beclin-1 has also been observed.
A549 cells were seeded on Petri dishes (55 cm^2) at a density of 1 × 10^6 and allowed to culture in the medium. After 24 h, the test substance was added, and the cells were incubated for 24, 48 and 72 h. Subsequently, the cells were lysed with ice-cold Laemli buffer solution containing glycerol, 1M Tris/HCl (pH 6.8), 20% sodium dodecyl sulphate (SDS), deionized water and mixtures of phosphatase and protease inhibitors. After lysis, the cells were sonicated, and the protein concentration in the samples was quantified using the Pierce® BCA Protein Assay Kit (Thermo Scientific, Rockford, IL, USA) and measured by an automated Cytation™ 3 Cell Imaging Multi-Mode Reader (Biotek) at a wavelength of 570 nm. […]

A549 cells = assay: Annexin V/PI staining; assay type: cell-based, human
Procedure: Phosphatidylserine (PS), normally localized in the inner leaflet of the cell membrane, is translocated on the outer surface during induction of apoptosis. Annexin V/PI double staining was performed to analyze the externalization of PS on the outer plasmatic membrane surface together with cell population diversification (An^−/PI^−—living cells; An^+/PI^- early apoptotic cells; An^+/PI^+—late apoptotic/necrotic cells, and An^−/PI^+—dead cells). […] The A549 lung human alveolar adenocarcinoma cells were seeded at a density of 2 × 10^5/dish. After 24 h incubation, the cells were treated with indole phytoalexin 49 at 20 µM concentration alone or after 1 h pre-treatment with chloroquine (20 µM), and the control group with DMSO (v/v 0.02%). The whole population of treated cells (adherent and floating) was harvested at three different times (24, 48 and 72 h), washed with PBS and stained with Annexin V-Alexa Fluor® 647 antibody (Thermo Scientific, Rockford, IL, USA) in binding buffer for 20 min in the dark at RT. After the wash step, samples were stained with 1 μL of propidium iodide (final concentration 25 μg/mL) for 5 min and analyzed using a BD FACSCalibur^TM Flow Cytometer (Becton Dickinson, San Jose, CA, USA). Three independent analyses were performed.

## CC(C)(C)OC(=O)n1cc(CNC(=O)Nc2ccc(NC(=O)NCc3cn(C(=O)OC(C)(C)C)c4ccccc34)cc2)c2ccccc21 [Compound 49, N,N′-(1,4-phenylene)bis{N′-[1-(tert-butoxycarbonyl)indol-3-yl]methyl (urea)}]
Atg7
  levels of Atg7: significantly increased
A549 cells; A549, 20 µM, 24, 48 and 72 h, vs DMSO-treated control
  total PS externalization (Annexin V/PI): did not induce
A549 cells; A549, 49 20 µM + CQ 20 µM, all time points, vs DMSO, CQ or 49 alone
  number of cells in late apoptosis, combination with CQ: significantly increased
